We go through 15 compounds from patent US20240317735A1, “HYDROISOQUINOLINE OR HYDRONAPHTHYRIDINE COMPOUNDS FOR THE TREATMENT OF AUTOIMMUNE DISEASE” (Hoffmann-La Roche Inc., priority 2020, published 2024).

One data set addresses T1, TLR9 (Homo sapiens, UniProt Q9NR96).
T1 sequence (Q9NR96 26-1032): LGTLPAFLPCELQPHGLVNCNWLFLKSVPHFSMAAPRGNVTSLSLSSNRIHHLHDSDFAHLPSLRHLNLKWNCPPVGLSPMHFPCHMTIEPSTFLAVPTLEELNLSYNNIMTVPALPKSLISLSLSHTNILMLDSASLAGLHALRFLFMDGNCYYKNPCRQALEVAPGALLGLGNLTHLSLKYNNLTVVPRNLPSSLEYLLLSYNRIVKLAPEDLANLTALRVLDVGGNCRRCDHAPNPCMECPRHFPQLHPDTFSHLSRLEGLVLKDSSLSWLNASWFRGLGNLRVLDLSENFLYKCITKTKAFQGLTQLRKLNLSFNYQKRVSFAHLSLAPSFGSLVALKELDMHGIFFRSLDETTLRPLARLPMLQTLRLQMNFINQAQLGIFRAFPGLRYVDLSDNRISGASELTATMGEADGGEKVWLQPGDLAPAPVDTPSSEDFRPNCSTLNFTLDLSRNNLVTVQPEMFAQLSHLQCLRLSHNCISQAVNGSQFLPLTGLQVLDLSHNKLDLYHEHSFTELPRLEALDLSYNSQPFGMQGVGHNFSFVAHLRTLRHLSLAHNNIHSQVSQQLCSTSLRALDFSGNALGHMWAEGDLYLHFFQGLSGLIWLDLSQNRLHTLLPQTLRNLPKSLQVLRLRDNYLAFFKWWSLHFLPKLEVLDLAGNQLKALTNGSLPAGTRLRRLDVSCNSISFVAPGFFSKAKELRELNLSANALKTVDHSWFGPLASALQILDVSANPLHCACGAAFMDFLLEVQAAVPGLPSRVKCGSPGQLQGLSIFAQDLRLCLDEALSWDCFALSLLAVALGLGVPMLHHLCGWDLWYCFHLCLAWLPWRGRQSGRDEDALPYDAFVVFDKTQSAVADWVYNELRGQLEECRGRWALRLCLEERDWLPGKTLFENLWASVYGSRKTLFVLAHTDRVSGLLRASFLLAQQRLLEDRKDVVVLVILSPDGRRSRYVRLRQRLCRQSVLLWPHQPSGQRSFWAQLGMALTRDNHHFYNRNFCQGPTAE
The data set can be described thus: HEK293-Blue-hTLR-9 cells assay (SEAP reporter, ODN2006 stimulation). The data set is classed as cell-based. To be noted: HEK293-Blue-hTLR9 cells, ODN2006, 20 hrs; read-out: HEK/hTLR9 IC50. Also noted: host or cells: HEK293 (HEK-Blue hTLR9). On the procedure:
The following tests were carried out in order to determine the activity of the compounds of formula (I) and (Ia) in HEK293-Blue-hTLR-7/8/9 cells assay.
A stable HEK293-Blue-hTLR-9 cell line was purchased from InvivoGen (Cat. #: hkb-htlr9, San Diego, California, USA). These cells were originally designed for studying the stimulation of human TLR9 by monitoring the activation of NF-κB. A SEAP (secreted embryonic alkaline phosphatase) reporter gene was placed under the control of the IFN-β minimal promoter fused to five NF-κB and AP-1-binding sites. The SEAP was induced by activating NF-κB and AP-1 via stimulating HEK-Blue hTLR9 cells with TLR9 ligands. Therefore the reporter expression was declined by TLR9 antagonist under the stimulation of a ligand, such as ODN2006 (Cat. #: tlrl-2006-1, Invivogen, San Diego, California, USA), for incubation of 20 hrs. The cell culture supernatant SEAP reporter activity was determined using QUANTI-Blue™ kit (Cat. #: rep-qb1, Invivogen, San Diego, California, USA) at a wavelength of 640 nm, a detection medium that turns purple or blue in the presence of alkaline phosphatase.
HEK293-Blue-hTLR9 cells were incubated at a density of 250,000-450,000 cells/mL in a volume of 170 μL in a 96-well plate in Dulbecco's Modified Eagle's medium (DMEM) containing 4.5 g/L glucose, 50 U/mL penicillin, […], […], 2 mM L-glutamine, 10% (v/v) heat-inactivated fetal bovine serum with addition of 20 μL test compound in a serial dilution in the presence of final DMSO at 1% and 10 μL of 20 uM ODN2006 in above DMEM, perform incubation under 37° C. in a CO2 incubator for 20 hrs. Then 20 μL of the supernatant from each well was incubated with 180 μL Quanti-blue substrate solution at 37° C. for 2 h and the absorbance was read at 620˜655 nm using a spectrophotometer.
The signaling pathway that TLR9 activation leads to downstream NF-κB activation has been widely accepted, and therefore similar reporter assay was modified for evaluating TLR9 antagonist.

In another data set the target is T2, hERG channel (Homo sapiens, UniProt Q12809).
T2 construct: expressed in transfected cells; host or cells: CHO (CHOhERG)
The data set can be described thus: hERG channel inhibition assay (patch-clamp, CHOhERG cells). The data set is classed as cell-based. The settings on record: for IC50 / IC20: CHOhERG cells, whole-cell patch-clamp; for IC20: human, CHO cells stably expressing hERG (CHOhERG); for hERG IC20/TLR7 IC50 / hERG IC20/TLR8 IC50 / hERG IC20/TLR9 IC50: safety ratio; for hERG IC20/TLR7 IC50: hERG IC20 over HEK/hTLR7 IC50; for hERG IC20/TLR8 IC50: hERG IC20 over HEK/hTLR8 IC50; for hERG IC20/TLR9 IC50: hERG IC20 over HEK/hTLR9 IC50. The procedure: The hERG K^+ channels were cloned in humans and stably expressed in a CHO (Chinese hamster ovary) cell line. CHOhERG cells were used for patch-clamp (voltage-clamp, whole-cell) experiments. Cells were stimulated by a voltage pattern to activate hERG channels and conduct IKhERG currents (rapid delayed outward rectifier potassium current of the hERG channel). After the cells were stabilized for a few minutes, the amplitude and kinetics of IKhERG were recorded at a stimulation frequency of 0.1 Hz (6 bpm). Thereafter, the test compound was added to the preparation at increasing concentrations. For each concentration, an attempt was made to reach a steady-state effect, usually, this was achieved within 3-10 min at which time the next highest concentration was applied. The amplitude and kinetics of IKhERG are recorded in each concentration of the drug which were compared to the control values (taken as 100%). (references: Redfern W S, Carlsson L, Davis A S, Lynch W G, MacKenzie I, Palethorpe S, Siegl P K, Strang I, Sullivan A T, Wallis R, Camm A J, Hammond T G. 2003; Relationships between preclinical cardiac electrophysiology, clinical QT interval prolongation and torsade de pointes for a broad range of drugs: evidence for a provisional safety margin in drug development. Cardiovasc. Res. 58:32-45, Sanguinetti MC, Tristani-Firouzi M. 2006; hERG potassium channels and cardiac arrhythmia. Nature 440:463-469, Webster R, Leishman D, Walker D. 2002; Towards a drug concentration effect relationship for QT prolongation and torsades de pointes. Curr. Opin. Drug Discov. Devel. 5:116-26).

The structures appear in SMILES notation.

T2 sequence (Q12809 whole entry): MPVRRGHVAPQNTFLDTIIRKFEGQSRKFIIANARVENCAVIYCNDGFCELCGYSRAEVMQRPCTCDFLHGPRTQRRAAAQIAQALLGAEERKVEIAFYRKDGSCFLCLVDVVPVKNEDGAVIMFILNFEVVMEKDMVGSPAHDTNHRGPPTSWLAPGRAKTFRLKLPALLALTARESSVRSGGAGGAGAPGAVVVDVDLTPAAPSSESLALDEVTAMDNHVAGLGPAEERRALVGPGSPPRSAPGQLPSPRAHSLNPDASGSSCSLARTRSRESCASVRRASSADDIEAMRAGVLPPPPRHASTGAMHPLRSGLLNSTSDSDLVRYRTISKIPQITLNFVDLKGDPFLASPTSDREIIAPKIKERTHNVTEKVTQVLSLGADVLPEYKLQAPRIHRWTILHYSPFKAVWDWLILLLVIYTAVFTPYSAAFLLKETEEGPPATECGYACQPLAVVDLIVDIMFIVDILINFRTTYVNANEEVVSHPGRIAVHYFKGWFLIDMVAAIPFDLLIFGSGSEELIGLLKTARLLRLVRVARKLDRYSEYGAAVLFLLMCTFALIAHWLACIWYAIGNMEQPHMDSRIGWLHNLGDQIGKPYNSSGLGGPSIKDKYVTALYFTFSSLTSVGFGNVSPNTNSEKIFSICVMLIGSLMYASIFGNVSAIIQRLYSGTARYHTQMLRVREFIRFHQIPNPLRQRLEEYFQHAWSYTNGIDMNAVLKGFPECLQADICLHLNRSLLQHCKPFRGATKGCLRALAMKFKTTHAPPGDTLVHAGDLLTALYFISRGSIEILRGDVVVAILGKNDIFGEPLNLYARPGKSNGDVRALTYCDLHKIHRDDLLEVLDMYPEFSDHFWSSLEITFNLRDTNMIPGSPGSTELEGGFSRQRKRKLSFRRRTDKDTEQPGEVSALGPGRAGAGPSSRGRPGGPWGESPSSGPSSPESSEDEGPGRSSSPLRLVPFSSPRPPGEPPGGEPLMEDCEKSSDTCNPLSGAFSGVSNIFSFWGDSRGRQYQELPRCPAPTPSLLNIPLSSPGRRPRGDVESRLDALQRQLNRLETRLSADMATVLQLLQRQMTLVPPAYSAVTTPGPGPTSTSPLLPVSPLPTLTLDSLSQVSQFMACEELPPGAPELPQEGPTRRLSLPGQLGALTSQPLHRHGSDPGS

Take `Cc1cc(N2Cc3cnc(N4CC[C@@H](N)[C@H](F)C4)cc3[C@@H](C)C2)c2cnn(C)c2n1` [Example 80, (3R,4R)-3-fluoro-1-[(5R)-7-(1,6-dimethylpyrazolo[3,4-b]pyridin-4-yl)-5-methyl-6,8-dihydro-5H-2,7-naphthyridin-3-yl]piperidin-4-amine]: on TLR9, the IC50 came to 73 nM. Also, on hERG channel, the IC50 is greater than 20000 nM, the IC20 was greater than 10000 nM, the “hERG IC20/TLR7 IC50” value is greater than 833.3 and the “hERG IC20/TLR8 IC50” value is greater than 294.1. Also, the “hERG IC20/TLR9 IC50” value on hERG channel is listed as greater than 137.0. With `C[C@H]1CN(c2ccnc3c2cnn3C)Cc2ccc(OC[C@@H]3CNCCN3C)cc21` [Example 44, (4R)-4-methyl-2-(1-methylpyrazolo[3,4-b]pyridin-4-yl)-6-[[(2S)-1-methylpiperazin-2-yl]methoxy]-3,4-dihydro-1H-isoquinoline], the IC50 at TLR9 stood at 234 nM. For the same compound, at hERG channel, the IC50 was greater than 20000 nM, the IC20 is greater than 10000 nM, the “hERG IC20/TLR7 IC50” value is listed as greater than 666.7 and the “hERG IC20/TLR8 IC50” value was greater than 2000.0. In addition, the “hERG IC20/TLR9 IC50” value at hERG channel is greater than 42.7. As for `C[C@H]1CN(c2ccnc3c2cnn3C)Cc2ccc(N3CC4CNC[C@H]4C3=O)cc21` (relative stereo) [Example 17, cis-5-[(4R)-4-methyl-2-(1-methylpyrazolo[3,4-b]pyridin-4-yl)-3,4-dihydro-1H-isoquinolin-6-yl]-1,2,3,3a,6,6a-hexahydropyrrolo[3,4-c]pyrrol-4-one], the IC50 on TLR9 was determined as 217 nM. As to `C[C@H]1CN(c2ccnc3c2cnn3C)Cc2ccc(N3CCC(O)(CN(C)C)CC3)cc21` [Example 13, 4-[(dimethylamino)methyl]-1-[(4R)-4-methyl-2-(1-methylpyrazolo[3,4-b]pyridin-4-yl)-3,4-dihydro-1H-isoquinolin-6-yl]piperidin-4-ol], the IC50 at TLR9 was determined as 399 nM. The same measure, in the same setting: under `CO[C@@H]1CN(c2ccc3c(n2)[C@@H](C)CN(c2cc(C)nc4c2cnn4C)C3)C[C@H]1N` [Example 63, (3R,4R)-4-methoxy-1-[(8S)-6-(1,6-dimethylpyrazolo[3,4-b]pyridin-4-yl)-8-methyl-7,8-dihydro-5H-1,6-naphthyridin-2-yl]pyrrolidin-3-amine] stands 236 nM; under `CO[C@@H]1CN(C2CCN(c3ccc4c(c3)[C@@H](C)CN(c3ccnc5c3cnn5C)C4)CC2)C[C@H]1N` [Example 11, (3R,4R)-4-methoxy-1-[1-[(4R)-4-methyl-2-(1-methylpyrazolo[3,4-b]pyridin-4-yl)-3,4-dihydro-1H-isoquinolin-6-yl]-4-piperidyl]pyrrolidin-3-amine], 63 nM; under `Cc1cc(N2Cc3ccc(N4CCC(O)(CN(C)C)CC4)nc3[C@@H](C)C2)c2cnn(C)c2n1` [Example 61, 4-[(dimethylamino)methyl]-1-[(8S)-6-(1,6-dimethylpyrazolo[3,4-b]pyridin-4-yl)-8-methyl-7,8-dihydro-5H-1,6-naphthyridin-2-yl]piperidin-4-ol], 129 nM.

`C[C@H]1CN(c2ccnc3c2cnn3C)Cc2ccc(N3CC4(CCNCC4)OC3=O)cc21` [Example 26, 3-[(4R)-4-methyl-2-(1-methylpyrazolo[3,4-b]pyridin-4-yl)-3,4-dihydro-1H-isoquinolin-6-yl]-1-oxa-3,8-diazaspiro[4.5]decan-2-one]: the IC50 at TLR9 was found to be 73 nM. Still for that read-out and setting: under `Cc1cc(N2Cc3ccc(N4CCNCC4)cc3[C@@H](C)C2)c2cnn(C)c2n1` [Example 2, (4R)-2-(1,6-dimethylpyrazolo[3,4-b]pyridin-4-yl)-4-methyl-6-piperazin-1-yl-3,4-dihydro-1H-isoquinoline] stands 86 nM; under `Cc1cc(N2Cc3ccc(N4CCOC5(CNC5)C4)nc3[C@@H](C)C2)c2cnn(C)c2n1` [Example 70, 8-[(8S)-6-(1,6-dimethylpyrazolo[3,4-b]pyridin-4-yl)-8-methyl-7,8-dihydro-5H-1,6-naphthyridin-2-yl]-5-oxa-2,8-diazaspiro[3.5]nonane], 300 nM; under `Cc1cc(N2Cc3ccc(N4CCNCC4)nc3[C@H](C)C2)c2cnn(C)c2n1` [Example 72, (8R)-6-(1,6-dimethylpyrazolo[3,4-b]pyridin-4-yl)-8-methyl-2-piperazin-1-yl-7,8-dihydro-5H-1,6-naphthyridine], 113 nM.

Turning to `C[C@H]1CN(c2ccnc3c2cnn3C)Cc2ccc(N3CCN(c4cc5c(cn4)CCNC5)CC3)cc21` [Example 9, 7-[4-[(4R)-4-methyl-2-(1-methylpyrazolo[3,4-b]pyridin-4-yl)-3,4-dihydro-1H-isoquinolin-6-yl]piperazin-1-yl]-1,2,3,4-tetrahydro-2,6-naphthyridine], the IC50 on TLR9 turned out to be 117 nM. `C[C@H]1CN(c2ccnc3c2cnn3C)Cc2ccc(N3C[C@@H]4CCNCC4C3=O)cc21` (relative stereo) [Example 55, cis-2-[(4R)-4-methyl-2-(1-methylpyrazolo[3,4-b]pyridin-4-yl)-3,4-dihydro-1H-isoquinolin-6-yl]-3a,4,5,6,7,7a-hexahydro-1H-pyrrolo[3,4-c]pyridin-3-one]: the IC50 at TLR9 stood at 137 nM.

Turning to `C[C@H]1CN(c2ccnc3c2cnn3C)Cc2ccc(N3CCN(CCN(C)C)CC3)cc21` [Example 38, N,N-dimethyl-2-[4-[(4R)-4-methyl-2-(1-methylpyrazolo[3,4-b]pyridin-4-yl)-3,4-dihydro-1H-isoquinolin-6-yl]piperazin-1-yl]ethanamine], the IC50 at TLR9 was 147 nM. `C[C@H]1CN(c2ccnc3c2cnn3C)Cc2ccc(N3C[C@H]4CCNC[C@H]4C3=O)cc21` (single isomer, unassigned) [Example 56]: the IC50 at TLR9 was found to be 254 nM.
